Laboratory results published in ChEMBL document CHEMBL1944634, “Design, synthesis and biological evaluation of 6-substituted aminocarbonyl benzimidazole derivatives as nonpeptidic angiotensin II AT1 receptor antagonists” (Eur J Med Chem, 2012).
Positions count from the first letter of the chain named. In brackets after ≈: the same amount, converted by molar mass.

Columns and labels:
[1] = target: T1, Type-1 angiotensin II receptor (Homo sapiens, UniProt P30556); test: Displacement of [125I]Sar1 Ile8-Ang 2 from angiotensin 2 AT1 receptor after 180 mins by gamma counting
T1 sequence (P30556 whole entry): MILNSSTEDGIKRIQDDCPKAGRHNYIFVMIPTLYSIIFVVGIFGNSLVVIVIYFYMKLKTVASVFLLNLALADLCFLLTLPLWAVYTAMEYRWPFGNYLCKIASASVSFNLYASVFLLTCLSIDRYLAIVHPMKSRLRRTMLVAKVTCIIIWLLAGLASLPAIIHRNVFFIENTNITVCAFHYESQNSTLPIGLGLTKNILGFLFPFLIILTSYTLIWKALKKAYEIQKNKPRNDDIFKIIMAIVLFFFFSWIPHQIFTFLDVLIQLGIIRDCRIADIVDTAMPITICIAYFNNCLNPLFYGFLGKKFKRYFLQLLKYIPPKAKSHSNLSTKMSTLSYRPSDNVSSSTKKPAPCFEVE

[2] = Toxicity against Photobacterium phosphoreum T3 mutant assessed as inhibition of luminescence after 15 mins by microtox test; type: organism-based; conditions: Photobacterium phosphoreum T3 mutant (luminescent bacteria), read-out: LC50
[3] = target: T2, Type-2 angiotensin II receptor (Homo sapiens, UniProt P50052); test: Displacement of [125I]Sar1 Ile8-Ang 2 from angiotensin 2 AT2 receptor after 180 mins by gamma counting
T2 sequence (P50052 whole entry): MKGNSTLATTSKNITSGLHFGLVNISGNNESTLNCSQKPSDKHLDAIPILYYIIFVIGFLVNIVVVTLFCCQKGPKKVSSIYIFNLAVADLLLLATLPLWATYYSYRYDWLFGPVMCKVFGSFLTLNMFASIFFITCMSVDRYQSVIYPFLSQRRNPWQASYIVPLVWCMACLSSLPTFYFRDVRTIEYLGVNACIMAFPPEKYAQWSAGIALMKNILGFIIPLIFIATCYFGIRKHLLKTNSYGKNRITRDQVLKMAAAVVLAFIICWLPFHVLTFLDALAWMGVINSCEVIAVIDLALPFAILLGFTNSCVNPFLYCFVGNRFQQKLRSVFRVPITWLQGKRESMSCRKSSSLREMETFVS

[4] = target: T3, Type-1 angiotensin II receptor (Oryctolagus cuniculus, UniProt P34976); test: Antagonist activity at angiotensin 2 AT1 receptor in Japanese White rabbits thoracic aorta assessed as inhibition of angiotensin II-induced contraction after 60 mins; conditions: read-out: pA2 (converted)
T3 sequence (P34976 whole entry): T1 sequence (P30556 whole entry) with I2M, V49A, I254V, I270V, R272H, R311K, T349S, A353V

[5] = target: T4, Type-1 angiotensin II receptor (Homo sapiens) (UniProt P30556); test: Ratio of losartan IC50 to compound IC50 for angiotensin 2 AT1 receptor
T4 sequence (whole entry): T1 sequence (P30556 whole entry)

Rattus norvegicus = test: Antihypertensive activity in spontaneously hypertensive rat assessed as decrease in blood pressure at 10 mg/kg, po by tail plethysmography; type: functional

Work on `CCCc1nc2c(C)cc(C(=O)NCCc3ccccc3F)cc2n1Cc1ccc(-c2ccccc2C(=O)O)cc1` yielded an IC50 [1] of 0.106 µM and an EC50 (luminescence inhibition) at 0.25 h [2] of 65 µg/mL (≈ 118 µM).

For `CCCc1nc2c(C)cc(C(=O)NCCc3ccc(OC)cc3)cc2n1Cc1ccc(-c2ccccc2C(=O)O)cc1`, the IC50 [1] was 0.214 µM, the EC50 (luminescence inhibition) at 0.25 h [2] was over 100 µg/mL and the IC50 [3] was 1.5 µM.

For `CCCc1nc2c(C)cc(C(=O)NCCc3ccc(F)cc3)cc2n1Cc1ccc(-c2ccccc2C(=O)O)cc1`, the IC50 [1] was 0.198 µM, the EC50 (luminescence inhibition) at 0.25 h [2] was 89 µg/mL (≈ 162 µM) and the IC50 [3] was 1.3 µM.

Work on `CCCc1nc2c(C)cc(C(=O)NCc3ccc(OC)c(OC)c3)cc2n1Cc1ccc(-c2ccccc2C(=O)O)cc1` yielded an IC50 [1] of 0.0306 µM, an EC50 (luminescence inhibition) at 0.25 h [2] of over 100 µg/mL and an IC50 [3] of over 10 µM.

Work on `CCCc1nc2c(C)cc(C(=O)NCCc3cc(OC)ccc3OC)cc2n1Cc1ccc(-c2ccccc2C(=O)O)cc1` yielded a Kb [4] of 0.00316 µM, an IC50 [1] of 0.0013 µM and an EC50 (luminescence inhibition) at 0.25 h [2] of over 100 µg/mL. It also gave a Ratio IC50 [5] of 12, an IC50 [3] of 1.4 µM and an Activity (Rattus norvegicus) of over 30 mmHg.

In the case of `CCCc1nc2c(C)cc(C(=O)NCc3ccc(OC)cc3)cc2n1Cc1ccc(-c2ccccc2C(=O)O)cc1`, the Kb [4] is reported as 0.00479 µM, the IC50 [1] is reported as 0.0043 µM and the EC50 (luminescence inhibition) at 0.25 h [2] is reported as over 100 µg/mL. The IC50 [3] was 3.6 µM.

`CCCc1nc2c(C)cc(C(=O)NCc3cccc(OC)c3)cc2n1Cc1ccc(-c2ccccc2C(=O)O)cc1` showed an IC50 [1] of 0.326 µM, an EC50 (luminescence inhibition) at 0.25 h [2] of over 100 µg/mL and an IC50 [3] of over 10 µM.

`CCCc1nc2c(C)cc(C(=O)NCc3ccccc3)cc2n1Cc1ccc(-c2ccccc2C(=O)O)cc1` showed an IC50 [1] of 0.0525 µM and an EC50 (luminescence inhibition) at 0.25 h [2] of 78 µg/mL (≈ 151 µM).

In the case of `CCCc1nc2c(C)cc(C(=O)NCCc3cccc(OC)c3)cc2n1Cc1ccc(-c2ccccc2C(=O)O)cc1`, the IC50 [1] is reported as 0.0308 µM, the EC50 (luminescence inhibition) at 0.25 h [2] is reported as 72 µg/mL (≈ 128 µM) and the IC50 [3] is reported as over 10 µM.

With `CCCc1nc2c(C)cc(C(=O)NCc3ccccc3OC)cc2n1Cc1ccc(-c2ccccc2C(=O)O)cc1` the Kb [4] was 0.00692 µM, the IC50 [1] was 0.0024 µM and the EC50 (luminescence inhibition) at 0.25 h [2] was over 100 µg/mL. It also gave an IC50 [3] of 1.1 µM.

Compound `CCCc1nc2c(C)cc(C(=O)NCCc3ccc(OC)c(OC)c3)cc2n1Cc1ccc(-c2ccccc2C(=O)O)cc1` has an IC50 [1] of 0.0576 µM, an EC50 (luminescence inhibition) at 0.25 h [2] of over 100 µg/mL and an IC50 [3] of 1.2 µM.
